Paper PMC7407158, “Reprogramming of the Antibacterial Drug Vancomycin Results in Potent Antiviral Agents Devoid of Antibacterial Activity” (Pharmaceuticals, 2020)
Converted amounts (≈) assume the structure as drawn.

Legend:
[1] = system: HEL, human embryonic lung fibroblast cells; details: read-out: CC50 HEL; mock-infected HEL cells, MTS assay
influenza A or B viruses = assay: Anti-influenza virus activity in MDCK cells, MTS assay, overall for the three influenza A or B viruses; format: cell-based, Influenza A and B viruses
E. faecalis 15,376 VanA = assay: Broth microdilution MIC, E. faecalis 15,376 VanA; format: cell-based; details: Enterococcus faecalis, read-out: In Vitro MIC
Description: (§1) Antibacterial tests were carried out by the broth microdilution method on a panel of eight Gram-positive bacterial strains, using vancomycin and teicoplanin as reference compounds.

[2] = system: S. aureus MRSA ATCC 33591; assay: Broth microdilution MIC, S. aureus MRSA ATCC 33591; format: cell-based; details: Staphylococcus aureus, read-out: In Vitro MIC
Description: as §1

S. epidermidis mecA = assay: Broth microdilution MIC, S. epidermidis mecA; format: cell-based; details: Staphylococcus epidermidis, read-out: In Vitro MIC
Description: as §1

[3] = system: S. aureus MSSA ATCC 29213; assay: Broth microdilution MIC, S. aureus MSSA ATCC 29213; format: cell-based; details: Staphylococcus aureus; S. aureus MSSA ATCC 29213; broth microdilution; read-out: In Vitro MIC
Description: as §1

[4] = system: E. faecalis ATCC 51,299 VanB; assay: Broth microdilution MIC, E. faecalis ATCC 51,299 VanB; format: cell-based; details: Enterococcus faecalis, ATCC51, read-out: In Vitro MIC
Description: as §1

[5] = system: Vero, African Green monkey kidney cells; details: read-out: CC50 Vero; mock-infected Vero cells, MTS assay
E. faecalis ATCC 29212 = assay: Broth microdilution MIC, E. faecalis ATCC 29212; format: cell-based; details: Enterococcus faecalis, ATCC29212; E. faecalis ATCC 29212; broth microdilution; read-out: In Vitro MIC
Description: as §1

[6] = system: S. epidermidis ATCC 35984; assay: Broth microdilution MIC, S. epidermidis ATCC 35984; format: cell-based; details: Staphylococcus epidermidis, ATCC35984; S. epidermidis ATCC 35984; broth microdilution; read-out: In Vitro MIC
Description: as §1

human coronavirus 229E [7] = format: cell-based; details: 25 µM compound (non-toxic concentration); HEL cells
human coronavirus 229E [8] = assay: Coronavirus 229E virus yield reduction, RT-qPCR of viral RNA in supernatant, HEL cells; format: cell-based; details: day 4 p.i.
Description: To assess inhibition of human coronavirus 229E replication, HEL cells were infected and treated with 1:2 serial compound dilutions. The plate contained three virus controls (receiving no compound) and two cell controls (receiving no virus and no compound). At day 4 p.i., supernatants were frozen at −80 °C to determine the virus yield by one-step RT-qPCR assay. Two microliters supernatant was mixed with 11 µl lysis mix containing lysis enhancer and resuspension buffer at a 1:10 ratio (CellsDirect One-Step RT-qPCR kit; Invitrogen), and heated for 10 min at 75 °C. Five microliters of lysate was transferred to a PCR plate containing 9.75 µl RT-qPCR mix (CellsDirect One-Step RT-qPCR) and 0.25 µl Superscript III RT/Platinum Taq enzyme, and coronavirus-229E N-gene specific primers and probe (forward primer 5′-[…] -3′; reverse primer 5′-[…] -3′; probe 5′-FAM-[…]-ZEN-[…] -IBFQ-3′). The RT-qPCR program consisted of 15 min at 50 °C, 2 min at 95 °C, and 50 cycles of 15 s at 95 °C and 45 s at 60 °C. An N-gene plasmid standard was included for absolute quantification.

A/PR/8/34 virus = format: cell-based, Influenza A virus
MDCK cells = details: read-out: CC50 (50% cytotoxic concentration), mock-infected, MTS cell viability assay, three days
B. subtilis ATCC 6633 = assay: Broth microdilution MIC, B. subtilis ATCC 6633; format: cell-based; details: Bacillus subtilis, ATCC6633; B. subtilis ATCC 6633; broth microdilution; read-out: In Vitro MIC
Description: as §1

[9] = system: HeLa, human cervix carcinoma cells; details: read-out: CC50 HeLa; mock-infected HeLa cells, MTS assay
[10] = system: Zika virus (strain MR766); assay: CPE reduction, MTS assay, Zika virus in Vero cells; format: cell-based; details: protection against virus-induced CPE, read-out: Antiviral EC50 Zika Virus
in vitro [11] = details: African green monkey
[12] = system: yellow fever virus (vaccine strain 17D); assay: microbe, parasite or virus in culture; format: cell-based; details: Vero, read-out: Antiviral EC50 Yellow Fever Virus
in vitro [13] = details: human
in vitro [14] = details: human; remark: listed apart in the source
[15] = system: respiratory syncytial virus (RSV, strain Long); assay: CPE reduction, MTS assay, RSV in HeLa cells; format: cell-based; details: human respiratory syncytial virus, read-out: Antiviral EC50 RSV
[16] = system: Influenza A/H3N2 (A/Victoria/361/11); assay: Influenza CPE reduction in MDCK cells, MTS assay, A/H3N2; format: cell-based; details: Influenza A virus, H3N2, MDCK, read-out: Antiviral EC50 Influenza A/H3N2
[17] = system: Influenza B (B/Ned/537/05); assay: Influenza CPE reduction in MDCK cells, MTS assay, influenza B; format: cell-based; details: Influenza B virus, inhibition of virus-induced CPE by MTS assay, read-out: Antiviral EC50 Influenza B
[18] = system: Influenza A/H1N1 (A/Ned/378/05); assay: Influenza CPE reduction in MDCK cells, MTS assay, A/H1N1; format: cell-based; details: Influenza A virus, H1N1, MDCK, read-out: Antiviral EC50 Influenza A/H1N1

CCCCCCCCCCOCc1cn(CCOCCOCCOCCOCc2cn(C3C(=O)NC(CC(N)=O)C(=O)NC4C(=O)NC5C(=O)NC(C(=O)NC(C(=O)O)c6cc(O)cc(O)c6-c6cc5ccc6O)C(O)c5ccc(c(Cl)c5)Oc5cc4cc(c5O)Oc4ccc(cc4Cl)C3O)nn2)nn1 (stereo not drawn) [Compound 6]
CC50 [1]: > 100 µM | anti-influenza virus activity (in words) (influenza A or B viruses): robust activity | MIC (E. faecalis 15,376 VanA): 128 µg/mL (≈ 85.5 µM) | MIC [2]: 128 µg/mL (≈ 85.5 µM) | MIC (S. epidermidis mecA): 32 µg/mL (≈ 21.4 µM) | MIC [3]: 128 µg/mL (≈ 85.5 µM) | MIC [4]: 128 µg/mL (≈ 85.5 µM) | CC50 [5]: > 100 µM | MIC (E. faecalis ATCC 29212): 32 µg/mL (≈ 21.4 µM) | MIC [6]: 32 µg/mL (≈ 21.4 µM) | coronavirus 229E-induced cytopathicity observed microscopically (human coronavirus 229E [7]): no coronavirus 229E-induced cytopathicity could be observed microscopically | reduction of the viral RNA copy number in the supernatant (human coronavirus 229E [8]; 25 µM compound): 1000 fold | EC99 value for reduction of virus yield (human coronavirus 229E [8]; RT-qPCR of supernatant): 20 µM | virus-induced cytopathic effect (CPE) upon microscopic inspection (A/PR/8/34 virus): no virus-induced cytopathic effect (CPE) was observed | CC50 (MDCK cells): 41 µM | MIC (B. subtilis ATCC 6633): 32 µg/mL (≈ 21.4 µM) | CC50 [9]: > 100 µM

COc1c(C)c2c(c(O)c1C/C=C(\C)CCC(=O)O)C(=O)OC2 [Mycophenolic acid]
EC50 [10]: 0.8 µM | CC50 (in vitro [11]): > 100 µM | EC50 [12]: 0.7 µM | CC50 (in vitro [13]): > 100 µM | CC50 (in vitro [14]): > 100 µM

NC(=O)c1ncn([C@@H]2O[C@H](CO)[C@@H](O)[C@H]2O)n1 [Ribavirin]
EC50 [15]: 5 µM | EC50 [16]: 6.4 µM | EC50 [17]: 7.2 µM | EC50 [18]: 7 µM | CC50 (in vitro [11]): > 250 µM | EC50 [12]: 119 µM | CC50 (in vitro [13]): > 250 µM | CC50 (in vitro [14]): > 250 µM
